Columns and labels:
[1] = test system: K. pneumoniae strain 17ZR101 (K2 hvKp clinical strain); experiment: Antibiotic susceptibility test (microdilution), strain 17ZR101; type: cell-based, Klebsiella pneumoniae; settings: CLSI
Description: (§1) The antimicrobial susceptibility of the two Klebsiella strains was determined by the microdilution method according to the guidelines recommended by the Clinical and Laboratory Standards Institute^2. Escherichia coli strain ATCC 25922 was included as a quality control strain. All tests were performed in duplicate, and each test included three biological replicates.

[2] = test system: K. pneumoniae strain HKU1 (clinical cKp strain); experiment: Antibiotic susceptibility test (microdilution), strain HKU1; type: cell-based, Klebsiella pneumoniae; settings: CLSI
Description: as §1

IL-6 = experiment: Serum IL-6 by ELISA in 17ZR101-infected mice; type: in vivo, C57BL6 mice; settings: 17ZR101-infected mice treated with ASA; untreated 587.965
Description: (§2) The serum level of IL-6 of the test animals was measured by using the IL-6 Mouse Uncoated ELISA Kit (Thermo fisher scientific, 88-7064-88), IL-1β level by IL-1 beta Mouse Uncoated ELISA Kit (Thermo fisher scientific, 88-7013-86) and that of IFN-γ was measured by using the IFN gamma Mouse Uncoated ELISA Kit (Thermo fisher scientific, 88-7314-88) according to instructions of the manufacturer.
(§3) In ASA, NPXS, CTX, AzA, CsA, DXMS, and F-ara treatment experiment, mice challenged by 17ZR101 were given intraperitoneally 100 mg kg^−1 ASA, 50 mg kg^−1 NPXS, 150 mg kg^−1 CTX, 200 mg kg^−1 AzA, 20 mg kg^−1 CsA, 10 mg kg^−1 DXMS and 40 mg kg^−1 F-ara at 3 hpi, another group treated with an equal volume of PBS or 200 μL of corn oil solution was included as a control group. In ASA and CAZ/AVI combination treatment experiment, mice were given intraperitoneally 100 mg kg^−1 ASA plus 8 mg kg^−1 CAZ and 4 mg kg^−1 AVI or 8 mg kg^−1 CAZ and 4 mg kg^−1 AVI at 1 hpi. The health status and weight of all mice were observed and recorded.

hvKp strain 17ZR101 [3] = experiment: Mouse sepsis model, ~10^4 CFU 17ZR101, drug at 3 hpi: survival, body weight, spleen weight; type: in vivo, C57BL6 mice
Description: All animal experiments were approved by the Animal Ethics Committee of the City University of Hong Kong and followed the guidelines of the Institutional Laboratory Animal Research Unit. Six- to eight-weeks-old animals of both sexes were used in this study. For the sepsis model, mice were intravenously injected with ˜10^4 colony forming units (CFU) of the test stain resuspended in 200 μL PBS. For the pneumonia model, mice were anesthetized by inhaling isoflurane, and ˜10^6 CFU of the strain resuspended 10 μL PBS were dripped into the mouse's nasal cavity. The heads of the mice were hold upright for 30 s afterwards.
as §3

hvKp strain 17ZR101 [4] = experiment: Bacteria burden in organs, 10^7 CFU hvKp; type: in vivo, C57BL6 mice; settings: 4 hpi
Description: Ten-fold dilutions of tissue homogenate were prepared and spread onto MacConkey agar plates containing 2 μg mL^−1 cefotaxime to determine the bacterial load in different organs of the infected animals. To determine the number of intracellular bacteria, cells prepared for flow cytometry from lungs and spleens were collected and then incubated with 300 μg mL^−1 amikacin to kill the extracellular bacteria. The number of total and intracellular bacteria was counted and presented as the number of CFU g^−1 tissue.
as §3

[5] = test system: Stat1 and STAT1-regulated chemokines, M1 markers, Cox-1, Cox-2; experiment: RNA-Seq / qPCR of lung cells of 17ZR101-infected mice; type: in vivo, C57BL6 mice
Description: RNA was extracted from lung samples by homogenization in TRIzol reagent (15596026, Thermo Fisher Scientific), followed by chloroform extraction and isopropanol precipitation. The extracted RNA was reverse-transcribed into cDNA by using a SuperScript® III First-Strand Synthesis SuperMix kit (11752050, ThermoFisher Scientific). Real-time quantitative PCR was performed by using a QuantStudio™ 7 Pro Real-Time PCR System, following the manufacturer's instructions. cDNA samples were tested in duplicates, and the relative amount of mRNA in different samples (Gapdh, Il1b, Ifng, Cxcl2, Cxcl10, Ifna, Ifnb, Ifnar1, Stat1, Hmgb1, Il-6, Myd88, and Tlr4) was determined by the comparative threshold cycle (ΔΔCT) method, using the glyceraldehyde-3-phosphate dehydrogenase gene (Gapdh) for normalization.
Total RNA was extracted from lung samples by homogenization in TRIzol reagent, followed by chloroform extraction and isopropanol precipitation. DNA was removed by DNase treatment (TURBO DNA-Free™ Kit). RNA samples were sent to Novogene (HK) Company Limited for sequencing. Routine procedures of mRNA purification and library generation were performed by Novogene. Sequencing reads alignment was performed by using HISAT2. Count aligned reads and quantification were calculated based on exon regions using FeatureCounts. […] Gene Set Enrichment Analysis was performed for gene ontology enrichment analysis. The raw RNA-seq data has been deposited in NCBI database under the accession number PRJNA851242.
as §3

[6] = test system: F4/80+ cells (IMs), neutrophils in lungs; experiment: Flow cytometry of lung cells, 10^4 CFU 17ZR101 sepsis model; type: in vivo, C57BL6 mice; settings: ASA at 3 hpi
Description: (§4) Cells collected from different tissues of the test animals were subjected to flow cytometry analysis as described previously^4. Cells from spleens were obtained by mashing the organ through a 70-μm cell strainer and collected in a tube containing RPMI 1640 medium supplemented with 5% fetal bovine serum. To prepare lung cells, lung tissues were excised and incubated in HBSS containing 1×HEPES and Collagenase type I. The tissue fragments were forced through a 70-μm strainer as described above. Red blood cells were lysed with ACK lysing buffer.
Dead cells were excluded from the analysis by propidium iodide (Sigma-Aldrich Corporation, P4170-1G) or ghost Dye™ violet 510 (Tonbo Biosciences, 13-0870-T100) staining in all flow cytometry experiments. Fluorescently labeled mAbs against mouse CD45, CD11b, CD206, CD80, Ly6G, CD11c, SiglecF, Ly6C and appropriate isotype controls were obtained from Biolegend. For intracellular cytokine measurement, cells were incubated with Cell Activation Cocktail (BioLegend, 423303) at 37° C. in the dark for 4 h. Anti-IFN-γ-PE antibody (eBioscience, 12-7177-81) was used to determine intracellular expression of IFN-γ. For p-STAT1 measurement, the cells were fixed with IC fixation buffer (eBioscience, 00-8222-49) for 30 min and then suspended in 1 mL of methanol to permeabilize the cell membrane, left to stand for 10 min on ice. At the time of p-STAT1 measurement, the cell suspensions were washed with FACS buffer and then stained with PE-anti-STAT1 Phospho antibody (Biolegend, 686404). […] The acquired data were analyzed by the FlowJo software (Version 10.0.7, Treestar, Palo Alto, CA).
as §3, with “In ASA and CAZ/AVI combination treatment experiment, mice were given intraperitoneally 100 mg kg^−1 ASA plus 8 mg kg^−1 CAZ and 4 mg kg^−1 AVI or 8 mg kg^−1 CAZ and 4 mg kg^−1 AVI at 1 hpi.” left out

[7] = test system: F4/80+ cells and Ly6G+ cells in lungs; experiment: Flow cytometry of lung cells at 4 hpi, 10^7 CFU hvKp; type: in vivo, C57BL6 mice
Description: as §4
Dead cells were excluded from the analysis by propidium iodide (Sigma-Aldrich Corporation, P4170-1G) or ghost Dye™ violet 510 (Tonbo Biosciences, 13-0870-T100) staining in all flow cytometry experiments. […] The acquired data were analyzed by the FlowJo software (Version 10.0.7, Treestar, Palo Alto, CA).
as §3, with “In ASA and CAZ/AVI combination treatment experiment, mice were given intraperitoneally 100 mg kg^−1 ASA plus 8 mg kg^−1 CAZ and 4 mg kg^−1 AVI or 8 mg kg^−1 CAZ and 4 mg kg^−1 AVI at 1 hpi.” left out

IFN-γ = experiment: Serum IFN-γ by ELISA in 17ZR101-infected mice; type: in vivo, C57BL6 mice; settings: 17ZR101-infected mice treated with F-ara; untreated 2742.872
Description: as §2, §3

[8] = RNA-Seq lung cells, 17ZR101+ASA vs 17ZR101, unit not given

CN(C)c1cc(NC(=O)CNC(C)(C)C)c(O)c2c1C[C@H]1C[C@H]3[C@H](N(C)C)C(O)=C(C(N)=O)C(=O)[C@@]3(O)C(O)=C1C2=O [tigecycline]
antimicrobial susceptibility [1]: susceptible | antimicrobial susceptibility [2]: susceptible

CC(C)(O/N=C(\C(=O)N[C@@H]1C(=O)N2C(C(=O)[O-])=C(C[n+]3ccccc3)CS[C@H]12)c1csc(N)n1)C(=O)O [ceftazidime]
antimicrobial susceptibility [1]: resistant | antimicrobial susceptibility [2]: resistant

CC(=O)Oc1ccccc1C(=O)O [ASA, acetylsalicylic acid]
serum IL-6 production (IL-6): 57.964 pg/mL | spleen/body weight ratio (hvKp strain 17ZR101 [3]; 12 hpi, ASA 100 mg kg^−1 i.p. at 3 hpi, untreated 0.863%): 0.495% | bodyweight loss (hvKp strain 17ZR101 [3]; 12 hpi, ASA 100 mg kg^−1 i.p. at 3 hpi, untreated 7.206%): 2.076% | mice protected (survival) (hvKp strain 17ZR101 [3]; 17ZR101 infection, 100 mg kg^−1 ASA i.p. at 3 hpi, at 48 hpi): 100% | bacteria burden in various organs (hvKp strain 17ZR101 [4]): without contributing to bacteria clearance | expression level of M1 macrophage markers ([5]; RNA-Seq and qPCR, lung cells, ASA): decrease in expression level of M1 macrophage markers | Cxcl9 expression change [5, 8]: −2.118 | Cxcl10 expression change [5, 8]: −3.590 | Cxcl11 expression change [5, 8]: −2.098 | Stat1 expression change ([5]; RNA-Seq lung cells, 17ZR101+ASA vs 17ZR101, unit not printed here (Log 2 fold change)): −1.056 | Cox-1 and Cox-2 expression at the mRNA level ([5]; upon ASA administration): no significant difference | F4/80+ cells infiltration into the lungs [6]: suppressed F4/80^+ cells infiltration into the lungs | levels of neutrophils in the lungs [6]: slight decrease | M1 macrophage polarization ([6]; CD80 MFI): able to inhibit M1 macrophage polarization | F4/80+ cells infiltration in lungs [7]: could suppress F4/80^+ cells infiltration | Ly6G+ cells in lungs [7]: not significantly

NCC[C@H](O)C(=O)N[C@@H]1C[C@H](N)[C@@H](O[C@H]2O[C@H](CN)[C@@H](O)[C@H](O)[C@H]2O)[C@H](O)[C@H]1O[C@H]1O[C@H](CO)[C@@H](O)[C@H](N)[C@H]1O [amikacin]
antimicrobial susceptibility [1]: susceptible | antimicrobial susceptibility [2]: susceptible

polymyxin B
antimicrobial susceptibility [1]: susceptible | antimicrobial susceptibility [2]: susceptible

C[C@@H](O)[C@H]1C(=O)N2C(C(=O)O)=C(S[C@@H]3CN[C@H](C(=O)N(C)C)C3)[C@H](C)[C@H]12 [meropenem]
antimicrobial susceptibility [1]: resistant | antimicrobial susceptibility [2]: resistant

CO/N=C(\C(=O)N[C@@H]1C(=O)N2C(C(=O)O)=C(COC(C)=O)CS[C@H]12)c1csc(N)n1 [cefotaxime]
antimicrobial susceptibility [1]: resistant | antimicrobial susceptibility [2]: resistant

O=P1(N(CCCl)CCCl)NCCCO1 (stereo not shown) [cyclophosphamide]
protective effect (survival) (hvKp strain 17ZR101 [3]; 17ZR101 infection, 150 mg kg^−1 CTX i.p. at 3 hpi): did not exhibit any protective effect

Nc1nc(F)nc2c1ncn2[C@@H]1O[C@H](CO)[C@@H](O)[C@@H]1O [F-ara, Fludarabine]
mice protected from death (hvKp strain 17ZR101 [3]; 17ZR101 infection, 40 mg kg^−1 F-ara i.p. at 3 hpi, within 48 h): 50% | serum IFN-γ level (IFN-γ): 445.133 pg/mL
